Reference: PMC11722313 (bioRxiv, 2025)

Legend:
[1] = system: IDE; test: Cryo-EM of IDE in the presence of sub-saturating insulin; set-up: species or system human
[2] = system: IDE; details: time-resolved SAXS; ref Zhang et al., 2018; cited from earlier work
[3] = system: IDE; details: HDX-MS; ref Zhang et al, 2018; cited from earlier work
[4] = SEC-SAXS of IDE constructs; type: physicochemical, human; details: Guinier method
[5] = Size-exclusion chromatography elution of IDE constructs; type: physicochemical, human; details: S200 SEC column
[6] = target: IDE R668A (human insulin degrading enzyme, cysteine-free) (Homo sapiens, UniProt P14735, C110L/C171S/C178A/C257V/C414L/C573N/C590S/C789S/C812A/C819A/C904S/C966N/C974A/R668A); test: Competition assay: inhibition of MCA-[…]; type: biochemical; details: 5 nM IDE R668A, 5 μM MCA-RPPGFSAFK(Dnp), pH 7.5, 37° C; average of three technical replicates
[7] = IDE:insulin 2:1, compared with previously reported O and pO states

Sequence of IDE R668A (human insulin degrading enzyme, cysteine-free) (P14735 42-1019 C110L/C171S/C178A/C257V/C414L/C573N/C590S/R668A/C789S/C812A/C819A/C904S/C966N/C974A limits assumed): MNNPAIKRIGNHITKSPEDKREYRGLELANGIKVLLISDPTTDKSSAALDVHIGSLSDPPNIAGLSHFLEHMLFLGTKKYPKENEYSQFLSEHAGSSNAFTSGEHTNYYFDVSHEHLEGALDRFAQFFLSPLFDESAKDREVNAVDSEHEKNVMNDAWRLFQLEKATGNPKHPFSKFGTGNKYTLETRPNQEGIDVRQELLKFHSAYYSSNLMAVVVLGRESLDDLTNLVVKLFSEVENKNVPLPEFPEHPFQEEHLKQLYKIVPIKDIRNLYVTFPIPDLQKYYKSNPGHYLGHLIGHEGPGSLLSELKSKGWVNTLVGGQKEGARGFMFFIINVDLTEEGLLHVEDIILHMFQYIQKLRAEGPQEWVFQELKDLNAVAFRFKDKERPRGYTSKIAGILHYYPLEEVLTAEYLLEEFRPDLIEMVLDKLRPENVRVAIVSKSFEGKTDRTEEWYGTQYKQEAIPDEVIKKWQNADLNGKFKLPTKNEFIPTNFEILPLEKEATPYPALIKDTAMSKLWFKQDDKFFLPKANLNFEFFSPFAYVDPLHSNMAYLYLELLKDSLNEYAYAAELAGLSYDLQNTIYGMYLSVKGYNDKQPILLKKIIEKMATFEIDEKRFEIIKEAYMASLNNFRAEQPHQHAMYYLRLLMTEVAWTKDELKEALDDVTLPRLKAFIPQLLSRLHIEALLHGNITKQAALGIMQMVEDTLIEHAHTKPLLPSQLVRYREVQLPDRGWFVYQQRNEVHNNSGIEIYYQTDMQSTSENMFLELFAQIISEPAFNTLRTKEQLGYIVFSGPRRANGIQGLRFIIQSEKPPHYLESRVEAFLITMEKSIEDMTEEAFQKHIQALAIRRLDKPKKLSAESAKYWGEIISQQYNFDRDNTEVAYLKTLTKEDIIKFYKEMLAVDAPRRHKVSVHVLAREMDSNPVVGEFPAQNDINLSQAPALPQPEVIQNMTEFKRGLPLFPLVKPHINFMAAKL

For “insulin: IDE substrate; purchased from MP Biomedicals (#0219390010) for enzymatic assays, SIGMA (91077C) for cryo-EM”, the “closing of pO and O subunits in presence of insulin (D1-D4 COM distance)” value [1, 7] was 3–5 Å, the “reduction of D1-D2-D3-D4 COM dihedral in presence of insulin” value [1, 7] was 5–10 ° and the “dominant IDE state with sub-saturating insulin” value ([1]; IDE:insulin molar ratio 2:1, cryo-EM) was “the pC/pC was still found to be dominant”. The “time constant tau for the insulin induced open to closed transition” value [2] was ~ 100 milliseconds.

In the case of `O=C(C[C@@H](Cc1ccc2ccccc2c1)n1cc(CNC(=O)c2ccc(F)cc2)nn1)NO` [BDM-44768], the “deuterium exchange of the R668-containing peptide vs apo-IDE” value [3] is given as “the peptide containing R668 shows reduced deuterium exchange relative to apo-IDE”.

With “R668A: IDE carrying a R668 to alanine (R668A) point mutation” the “Rg (Guinier)” value [4] was 54.7 +/− 0.4 Å and the “SEC elution relative to WT IDE” value [5] was “eluted slightly earlier than WT IDE”.

In the case of “Aβ(1–40): amyloid-β 1–40, an unstructured substrate of IDE”, the “competition of MCA-RPPGFSAFK(Dnp) degradation, IDE R668A (in words)” value [6] is reported as “did not exhibit a dose-dependent response to the presence of Aβ and the data could not be fit to any kinetic equation”.
